# Molecular target: human Edg-2 receptor (LPA1 receptor) (Homo sapiens, UniProt Q92633)
# Assay: Edg-2 receptor inhibition by FLIPR calcium fluorescence measurement (LPA-mediated calcium liberation)
# Assay type: cell-based
# Settings: CHO cells stably overexpressing human Edg-2 receptor; LPA 18:1 100 nM; fluo-4 fluorescence; triplicate; read-out: Inhibitory concentrations IC50 for inhibition of the Edg-2 receptor
# In short: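 CHO cells stably overexpressing human Edg-2 were fluo-4 loaded and pre-incubated ~5 min with compound (≤0.3% DMSO) in HBSS/HEPES/probenecid, pH 7.5. Then LPA 18:1 at 100 nM final was added. Peak calcium fluorescence over ~3 min, baseline-corrected versus DMSO, gave % inhibition in triplicate and IC50.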
# Chain of human Edg-2 receptor (LPA1 receptor) (Q92633 whole entry): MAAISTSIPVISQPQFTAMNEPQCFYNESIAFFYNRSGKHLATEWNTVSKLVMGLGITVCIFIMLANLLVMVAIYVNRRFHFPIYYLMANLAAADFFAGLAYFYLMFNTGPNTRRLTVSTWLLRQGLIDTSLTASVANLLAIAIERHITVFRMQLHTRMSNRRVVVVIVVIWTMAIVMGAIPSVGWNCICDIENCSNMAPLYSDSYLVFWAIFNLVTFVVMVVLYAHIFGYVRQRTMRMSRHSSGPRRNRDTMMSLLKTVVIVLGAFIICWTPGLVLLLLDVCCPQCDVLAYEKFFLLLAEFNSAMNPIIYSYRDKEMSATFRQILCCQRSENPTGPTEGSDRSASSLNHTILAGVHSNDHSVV
row,Compound,IC50 [nM]
1,"CCc1ccc(CCOc2cc(C(=O)NC3(C(=O)O)Cc4ccccc4C3)ccc2OC)nc1 [Example 205, 2-{3-[2-(5-Ethyl-pyridin-2-yl)-ethoxy]-4-methoxy-benzoylamino}-indane-2-carboxylic acid]",1000 to 30000
2,"COc1ccc(C(=O)NC2(C(=O)O)Cc3ccccc3C2)cc1OCCc1scnc1C [Example 206, 2-{4-Methoxy-3-[2-(4-methyl-thiazol-5-yl)-ethoxy]-benzoylamino}-indane-2-carboxylic acid]",1000 to 30000
3,"COc1ccc(C(=O)NC2(C(=O)O)Cc3nccnc3C2)cc1OCCc1cccc(C)c1 [Example 207, 6-[4-Methoxy-3-(2-m-tolyl-ethoxy)-benzoylamino]-6,7-dihydro-5H-cyclopentapyrazine-6-carboxylic acid]",1000 to 30000
4,"COc1ccc(C(=O)NC2(C(=O)O)Cc3ccccc3C2)cc1OCCc1cccc(C(C)(CO)CO)c1 [Example 210, 2-(3-{2-[3-(2-Hydroxy-1-hydroxymethyl-1-methyl-ethyl)-phenyl]-ethoxy}-4-methoxy-benzoylamino)-indane-2-carboxylic acid]",100 to 1000
5,"COc1ccc(C(=O)NC2(C(=O)O)Cc3ccc(C(N)=O)cc3C2)cc1OCCc1cccc(C)c1 (centres unmarked) [Example 219, 5-Carbamoyl-2-[4-methoxy-3-(2-m-tolyl-ethoxy)-benzoylamino]-indane-2-carboxylic acid]",1000 to 30000
6,COc1ncc(C(=O)NC2(C(=O)O)Cc3ccccc3C2)cc1-c1ccccc1Cl [Example 225],100 to 1000
7,"CCS(=O)(=O)c1cccc(-c2cc(C(=O)NC3(C(=O)O)Cc4ccccc4C3)cnc2OC)c1 [Example 237, 2-{[5-(3-Ethanesulfonyl-phenyl)-6-methoxy-pyridine-3-carbonyl]-amino}-indane-2-carboxylic acid]",100 to 1000
8,"COc1ccc(C(=O)NC2(C(=O)O)Cc3ccccc3C2)cc1Oc1ccccc1C [Example 238, 2-(4-Methoxy-3-o-tolyloxy-benzoylamino)-indane-2-carboxylic acid]",100 to 1000
9,"COc1ccc(C(=O)NC2(C(=O)O)Cc3ccccc3C2)cc1Oc1cccc(C)c1 [Example 239, 2-(4-Methoxy-3-m-tolyloxy-benzoylamino)-indane-2-carboxylic acid]",1000 to 30000
10,"COc1ccc(C(=O)NC2(C(=O)O)Cc3ccccc3C2)cc1C(=O)c1ccccc1C [Example 240, 2-[4-Methoxy-3-(2-methyl-benzoyl)-benzoylamino]-indane-2-carboxylic acid]",1000 to 30000
11,"COc1ccc(C(=O)NC2(C(=O)O)Cc3ccccc3C2)cc1C(O)c1ccccc1C (centres unmarked) [Example 241, 2-[3-(Hydroxy-o-tolyl-methyl)-4-methoxy-benzoylamino]-indane-2-carboxylic acid]",1000 to 30000
12,"COc1ccc(C(=O)NC2(C(=O)O)Cc3ccccc3C2)cc1Cc1ccccc1C [Example 242, 2-[4-Methoxy-3-(2-methyl-benzyl)-benzoylamino]-indane-2-carboxylic acid]",100 to 1000
13,"COc1ccc(C(=O)NC2(C(=O)O)Cc3ccccc3C2)cc1Cc1ccccc1 [Example 243, 2-[4-Methoxy-3-benzyl-benzoylamino]-indane-2-carboxylic acid]",1000 to 30000
14,"COc1ccc(C(=O)NC2(C(=O)O)Cc3ccccc3C2)cc1Cc1cccc(C)c1 [Example 244, 2-[4-Methoxy-3-(3-methyl-benzyl)-benzoylamino]-indane-2-carboxylic acid]",100 to 1000
15,"COc1ccc(C(=O)NC2(C(=O)O)Cc3ccccc3C2)cc1Cc1ccc(C)cc1 [Example 245, 2-[4-Methoxy-3-(4-methyl-benzyl)-benzoylamino]-indane-2-carboxylic acid]",< 100
16,"COc1ccc(C(=O)NC2(C(=O)O)Cc3ccccc3C2)cc1OCCc1cccc(CCN)c1 [Example 246, 2-(3-{2-[3-(2-Amino-ethyl)-phenyl]-ethoxy}-4-methoxy-benzoylamino)-indane-2-carboxylic acid]",1000 to 30000
17,"COc1ccc(C(=O)NC2(C(=O)O)Cc3ccccc3C2)cc1OCCc1cccc(CCNC(C)=O)c1 [Example 247, 2-(3-{2-[3-(2-Acetylamino-ethyl)-phenyl]-ethoxy}-4-methoxy-benzoylamino)-indane-2-carboxylic acid]",100 to 1000
18,"COc1ccc(C(=O)NC2(C(=O)O)Cc3ccccc3C2)cc1OCCc1cccc(CC(N)=O)c1 [Example 248, 2-{3-[2-(3-Carbamoylmethyl-phenyl)-ethoxy]-4-methoxy-benzoylamino}-indane-2-carboxylic acid]",< 100
19,"COc1ccc(C(=O)NC2(C(=O)O)Cc3ccccc3C2)cc1OCCc1cccc(CC(C)(C)O)c1 [Example 249, 2-(3-{2-[3-(2-Hydroxy-2-methyl-propyl)-phenyl]-ethoxy}-4-methoxy-benzoylamino)-indane-2-carboxylic acid]",< 100
20,"COc1ccc(C(=O)NC2(C(=O)O)Cc3ccccc3C2)cc1OCC1(c2ccccc2)COC1 [Example 250, 2-[4-Methoxy-3-(3-phenyl-oxetan-3-ylmethoxy)-benzoylamino]-indane-2-carboxylic acid]",< 100

# Continued, values first:
row,IC50 [nM],Compound
1,< 100,"COc1ccc(C(=O)NC2(C(=O)O)Cc3ccccc3C2)cc1OCCc1cc(F)ccc1F [Example 204, 2-{3-[2-(2,5-Difluoro-phenyl)-ethoxy]-4-methoxy-benzoylamino}-indane-2-carboxylic acid]"
2,< 100,"COc1ncc(C(=O)NC2(C(=O)O)Cc3ccccc3C2)cc1OCCc1cccc(C)c1 [Example 208, 2-{[6-Methoxy-5-(2-m-tolyl-ethoxy)-pyridine-3-carbonyl]-amino}-indane-2-carboxylic acid]"
3,< 100,"COc1ccc(C(=O)NC2(C(=O)O)Cc3ccccc3C2C)cc1OCCc1cccc(C)c1 (centres unmarked) [Example 209, 2-[4-Methoxy-3-(2-m-tolyl-ethoxy)-benzoylamino]-1-methyl-indane-2-carboxylic acid]"
4,< 100,"COc1ccc(C(=O)NC2(C(=O)O)CC3CCCCC3C2)cc1OCCc1cccc(C)c1 (centres unmarked) [Example 211, 2-[4-Methoxy-3-(2-m-tolyl-ethoxy)-benzoylamino]-octahydro-indene-2-carboxylic acid]"
5,< 100,"COc1ccc(C(=O)NC2(C(=O)O)Cc3ccccc3C2)cc1OCC(F)(F)c1cccc(Cl)c1 [Example 212, 2-{3-[2-(3-Chloro-phenyl)-2,2-difluoro-ethoxy]-4-methoxy-benzoylamino}-indane-2-carboxylic acid]"
6,< 100,"COc1ccc(C(=O)NC2(C(=O)O)Cc3ccccc3C2)cc1OCC(F)(F)c1ccccc1 [Example 213, 2-[3-(2,2-Difluoro-2-phenyl-ethoxy)-4-methoxy-benzoylamino]-indane-2-carboxylic acid]"
7,< 100,"COc1ccc(C(=O)NC2(C(=O)O)Cc3c(F)ccc(F)c3C2)cc1OCCc1cccc(C)c1 [Example 214, 4,7-Difluoro-2-[4-methoxy-3-(2-m-tolyl-ethoxy)-benzoylamino]-indane-2-carboxylic acid]"
8,< 100,"COc1ccc(C(=O)NC2(C(=O)O)Cc3cccc(F)c3C2)cc1OCCc1cccc(C)c1 (centres unmarked) [Example 215, 4-Fluoro-2-[4-methoxy-3-(2-m-tolyl-ethoxy)-benzoylamino]-indane-2-carboxylic acid]"
9,< 100,"COc1ccc(C(=O)NC2(C(=O)O)Cc3cccc(C)c3C2)cc1OCCc1cccc(C)c1 (centres unmarked) [Example 216, 2-[4-Methoxy-3-(2-m-tolyl-ethoxy)-benzoylamino]-4-methyl-indane-2-carboxylic acid]"
10,< 100,"COc1ccc(C(=O)NC2(C(=O)O)Cc3cccc(Cl)c3C2)cc1OCCc1cccc(C)c1 (centres unmarked) [Example 217, 4-Chloro-2-[4-methoxy-3-(2-m-tolyl-ethoxy)-benzoylamino]-indane-2-carboxylic acid]"
11,< 100,"COc1ccc(C(=O)NC2(C(=O)O)Cc3ccc(C#N)cc3C2)cc1OCCc1cccc(C)c1 (centres unmarked) [Example 218, 5-Cyano-2-[4-methoxy-3-(2-m-tolyl-ethoxy)-benzoylamino]-indane-2-carboxylic acid]"
12,< 100,"COc1ncc(C(=O)NC2(C(=O)O)Cc3ccccc3C2)cc1-c1cccc(C(C)C)c1 [Example 221, 2-{[5-(3-Isopropyl-phenyl)-6-methoxy-pyridine-3-carbonyl]-amino}-indane-2-carboxylic acid]"
13,< 100,"COc1ncc(C(=O)NC2(C(=O)O)Cc3ccccc3C2)cc1-c1cccc(SC)c1 [Example 222, 2-{[6-Methoxy-5-(3-methylsulfanyl-phenyl)-pyridine-3-carbonyl]-amino}-indane-2-carboxylic acid]"
14,< 100,COc1ncc(C(=O)NC2(C(=O)O)Cc3ccccc3C2)cc1-c1cccc(Cl)c1 [Example 223]
15,< 100,"COc1ncc(C(=O)NC2(C(=O)O)Cc3ccccc3C2)cc1-c1cccc(C)c1 [Example 224, 2-{[6-methoxy-5-(3-methyl-phenyl)-pyridine-3-carbonyl]-amino}-indane-2-carboxylic acid]"
16,< 100,COc1ncc(C(=O)NC2(C(=O)O)Cc3ccccc3C2)cc1-c1ccc(Cl)cc1 [Example 226]
17,< 100,COc1ncc(C(=O)NC2(C(=O)O)Cc3ccccc3C2)cc1-c1cccc(Cl)c1Cl [Example 228]
18,< 100,COc1ncc(C(=O)NC2(C(=O)O)Cc3ccccc3C2)cc1-c1cc(F)c(F)c(F)c1 [Example 229]
19,< 100,COc1ncc(C(=O)NC2(C(=O)O)Cc3ccccc3C2)cc1-c1cccc(C(F)(F)F)c1F [Example 230]
20,< 100,COc1ncc(C(=O)NC2(C(=O)O)Cc3ccccc3C2)cc1-c1cccc(NS(=O)(=O)N(C)C)c1 [Example 231]
21,< 100,CCSc1cccc(-c2cc(C(=O)NC3(C(=O)O)Cc4ccccc4C3)cnc2OC)c1 [Example 233]
22,< 100,COc1ncc(C(=O)NC2(C(=O)O)Cc3ccccc3C2)cc1-c1cccc(OC(F)(F)F)c1 [Example 234]
23,< 100,COc1ncc(C(=O)NC2(C(=O)O)Cc3ccccc3C2)cc1-c1cc(Cl)cc(C(F)(F)F)c1 [Example 235]
24,< 100,COc1ncc(C(=O)NC2(C(=O)O)Cc3ccccc3C2)cc1-c1cccc(C#N)c1 [Example 236]

# Reference: patent publication US8802720B2, “Acylamino-substituted fused cyclopentanecarboxylic acid derivatives and their use as pharmaceuticals” (SANOFI, priority 2008, dated 2014)
